Source: the NIST ThermoML archive (doi:10.1016/j.fluid.2014.10.004)
Numbers after ± are expanded uncertainties.

What was measured:
[1] = refractive index (Na D-line) (dimensionless); xn = mol fraction of the nth substance listed; conditions: 101.3 kPa, Liquid, Standard Abbe refractometry
[2] = xn = mol fraction of the nth substance listed; conditions: 101.3 kPa, Liquid, Sing-around technique in a fixed-path interferometer

C[N+](=O)[O-] [nitromethane] + ClC(Cl)Cl
Conditions | refractive index, 298.15 K | refractive index, 308.15 K | refractive index, 318.15 K | speed of sound, 298.15 K [m/s] | speed of sound, 308.15 K [m/s] | speed of sound, 318.15 K [m/s]
[1], x2 = 0 | 1.37951 ± 0.0004 | 1.37501 ± 0.0004 | 1.37016 ± 0.0004 | – | – | –
[1], x2 = 0.1197 | 1.39001 ± 0.0004 | 1.38474 ± 0.0004 | 1.37896 ± 0.0004 | – | – | –
[1], x2 = 0.1772 | 1.39474 ± 0.0004 | 1.38937 ± 0.0004 | 1.3835 ± 0.0004 | – | – | –
[1], x2 = 0.3007 | 1.40415 ± 0.00039 | 1.39828 ± 0.00039 | 1.39227 ± 0.00039 | – | – | –
[1], x2 = 0.4009 | 1.41107 ± 0.00039 | 1.40509 ± 0.00039 | 1.39897 ± 0.00039 | – | – | –
[1], x2 = 0.5 | 1.41742 ± 0.00039 | 1.41126 ± 0.00039 | 1.40531 ± 0.00039 | – | – | –
[1], x2 = 0.5978 | 1.42317 ± 0.00038 | 1.41698 ± 0.00038 | 1.41097 ± 0.00038 | – | – | –
[1], x2 = 0.7194 | 1.42971 ± 0.00038 | 1.42362 ± 0.00038 | 1.41741 ± 0.00038 | – | – | –
[1], x2 = 0.8607 | 1.4364 ± 0.00037 | 1.43035 ± 0.00037 | 1.42424 ± 0.00037 | – | – | –
[1], x2 = 0.9562 | 1.44032 ± 0.00037 | 1.43408 ± 0.00037 | 1.42786 ± 0.00037 | – | – | –
[2], x2 = 0 | – | – | – | 1321.3 ± 1.8 | 1281.8 ± 1.8 | 1242.4 ± 1.7
[2], x2 = 0.1197 | – | – | – | 1253.7 ± 1.7 | 1215.5 ± 1.7 | 1177.5 ± 1.7
[2], x2 = 0.1772 | – | – | – | 1225 ± 1.7 | 1187.5 ± 1.7 | 1150.1 ± 1.7
[2], x2 = 0.3007 | – | – | – | 1171.2 ± 1.7 | 1134.6 ± 1.7 | 1098.1 ± 1.7
[2], x2 = 0.4009 | – | – | – | 1133.6 ± 1.6 | 1097.8 ± 1.6 | 1062 ± 1.6
[2], x2 = 0.5 | – | – | – | 1101.3 ± 1.6 | 1065.9 ± 1.6 | 1030.7 ± 1.6
[2], x2 = 0.5978 | – | – | – | 1072.5 ± 1.6 | 1037.7 ± 1.6 | 1002.9 ± 1.6
[2], x2 = 0.7194 | – | – | – | 1041.5 ± 1.6 | 1007.1 ± 1.6 | 972.74 ± 1.6
[2], x2 = 0.8607 | – | – | – | 1010.4 ± 1.5 | 976.31 ± 1.5 | 942.3 ± 1.5
[2], x2 = 0.9562 | – | – | – | 993.45 ± 1.5 | 959.49 ± 1.5 | 925.65 ± 1.5

ClC(Cl)C(Cl)Cl [1,1,2,2-tetrachloroethane] + C[N+](=O)[O-]
Conditions | refractive index, 298.15 K | refractive index, 308.15 K | refractive index, 318.15 K | speed of sound, 298.15 K [m/s] | speed of sound, 308.15 K [m/s] | speed of sound, 318.15 K [m/s]
[1], x1 = 0.0711 | 1.39391 ± 0.00042 | 1.3893 ± 0.0004 | 1.38479 ± 0.00042 | – | – | –
[1], x1 = 0.1888 | 1.41442 ± 0.00043 | 1.4099 ± 0.0004 | 1.40582 ± 0.00043 | – | – | –
[1], x1 = 0.2563 | 1.42485 ± 0.00043 | 1.42025 ± 0.00043 | 1.4162 ± 0.0004 | – | – | –
[1], x1 = 0.3464 | 1.43683 ± 0.00044 | 1.43222 ± 0.00044 | 1.42805 ± 0.00044 | – | – | –
[1], x1 = 0.4341 | 1.44721 ± 0.00045 | 1.4425 ± 0.0005 | 1.43807 ± 0.00045 | – | – | –
[1], x1 = 0.5431 | 1.45848 ± 0.00046 | 1.45366 ± 0.00046 | 1.44909 ± 0.00046 | – | – | –
[1], x1 = 0.6654 | 1.46937 ± 0.00047 | 1.46448 ± 0.00047 | 1.4596 ± 0.0005 | – | – | –
[1], x1 = 0.8211 | 1.48094 ± 0.00049 | 1.47589 ± 0.00049 | 1.47087 ± 0.00049 | – | – | –
[1], x1 = 0.9285 | 1.48772 ± 0.0005 | 1.48262 ± 0.0005 | 1.47752 ± 0.0005 | – | – | –
[1], x1 = 1 | 1.49174 ± 0.00051 | 1.48654 ± 0.00051 | 1.48137 ± 0.00051 | – | – | –
[2], x1 = 0.0711 | – | – | – | 1293.1 ± 1.8 | 1254.8 ± 1.8 | 1216.6 ± 1.8
[2], x1 = 0.1888 | – | – | – | 1257.7 ± 1.9 | 1220.8 ± 1.8 | 1184.5 ± 1.8
[2], x1 = 0.2563 | – | – | – | 1241.8 ± 1.9 | 1205.8 ± 1.9 | 1170 ± 1.9
[2], x1 = 0.3464 | – | – | – | 1224.1 ± 1.9 | 1189.1 ± 1.9 | 1154.2 ± 1.9
[2], x1 = 0.4341 | – | – | – | 1209.8 ± 2 | 1175.4 ± 2 | 1141.1 ± 2
[2], x1 = 0.5431 | – | – | – | 1194.8 ± 2 | 1161.1 ± 2 | 1127.6 ± 2
[2], x1 = 0.6654 | – | – | – | 1180.7 ± 2.1 | 1147.6 ± 2.1 | 1114.7 ± 2.1
[2], x1 = 0.8211 | – | – | – | 1165.3 ± 2.2 | 1133 ± 2.2 | 1100.8 ± 2.2
[2], x1 = 0.9285 | – | – | – | 1156.2 ± 2.3 | 1124.2 ± 2.3 | 1092.3 ± 2.3
[2], x1 = 1 | – | – | – | 1150.6 ± 2.3 | 1118.7 ± 2.3 | 1087 ± 2.3

C[N+](=O)[O-] [nitromethane] + ClC(Cl)C(Cl)Cl
x2 = 0
Conditions | refractive index, 298.15 K | refractive index, 308.15 K | refractive index, 318.15 K | speed of sound, 298.15 K [m/s] | speed of sound, 308.15 K [m/s] | speed of sound, 318.15 K [m/s]
[1] | 1.37946 ± 0.0004 | 1.37472 ± 0.0004 | 1.36996 ± 0.0004 | – | – | –
[2] | – | – | – | 1321.2 ± 1.8 | 1281.8 ± 1.8 | 1242.5 ± 1.7
